From patent US20240277677A1, “SALT FORM AND CRYSTAL FORM THEREOF OF SULFONYLUREA RING SUBSTITUTED COMPOUND” (priority 2022, published 2024)
In brackets after ≈: the same amount, converted by molar mass.

Legend:
[1] = system: Escherichia coli ATCC 25922; assay: Spontaneous drug resistance mutation rate (FOR); format: cell-based; conditions: for Drug resistance frequency (24 h) / Drug resistance frequency (48 h) / Drug resistance frequency (72 h): selected total colony count 2.60E+08 CFU
Description: Escherichia coli ATCC 25922 was used to carry out a micro-liquid dilution method according to the Institute of Clinical and Laboratory Standard (CLSI) requirements, the colony for selection with a total colony count of 2.60E+08CFU in Colony-Forming Units (CFU) was selected, […], 4, 8, 16, 32-fold of minimum inhibitory concentration (MIC), and the drug resistance frequency was calculated.

[2] = Exploration of other crystal forms by changing crystallization conditions; format: physicochemical
Description: Purpose: Explore obtaining other crystal forms by changing crystallization conditions.

[3] = system: Escherichia coli ATCC BAA-2523(OXA-48); assay: Antibacterial activity MIC, micro-liquid dilution method (CLSI); format: cell-based; conditions: ATCCBAA2523, E. coli ATCC BAA-2523 Class D (OXA-48)
Description: (§1) Three strains of Klebsiella pneumonia, ATCC BAA-205 (TEM-1/SHV-1/SHV-12), ATCC BAA-1705 (KPC-2), ATCC BAA-2470 (NDM-1), Enterobacter cloacae ATCC BAA-1143 (AmpC), two strains of Escherichia coli ATCC BAA-2523(OXA-48), ATCC 25922 were used to determine the minimum inhibitory concentration (MIC) of each of the compounds by a micro-liquid dilution method according to the Institute of Clinical and Laboratory Standard (CLSI) requirements. A 2-fold serial dilution of the compound (final concentration ranging from 0.125 μg/ml to 128 µg/ml) was added to a round-bottom 96-well plate (Catalog #3788, Corning), fresh monoclonal bacteria were selected from an overnight cultured Mueller Hinton II Agar medium plate (MHA, Cat. No. 211438, BD BBL™) and suspended in sterile saline, the concentration was adjusted to 1×10^8 CFU/mL, and then the solution was diluted by using a cation-adjusted Hinton Mueller culture medium Cation-Adjusted Mueller Hinton II Broth (MHB, Catalog #212332, BD BBL™) to a concentration of 5×10^5 CFU/ml, and 100 μl of the solution was added to a round bottom 96-well plate containing the drugs. The plate was placed upside down at 37° C. and the MIC value was read after 20-24 h of incubation, and the lowest drug concentration that inhibited the growth of bacteria was set as MIC. For the results see Table 1. Colony-Forming Units (CFU) refers to the total number of bacterial colonies per unit volume.

[4] = system: Enterobacter cloacae ATCC BAA-1143 (AmpC); assay: as above; format: cell-based; conditions: ATCCBAA1143, E. cloacae ATCC BAA-1143 Class C (AmpC)
Description: as §1

[5] = system: Klebsiella pneumonia ATCC BAA-205 (TEM-1/SHV-1/SHV-12); assay: as above; format: cell-based; conditions: Klebsiella pneumoniae, ATCCBAA205
Description: as §1

[6] = system: Klebsiella pneumonia ATCC BAA-2470 (NDM-1); assay: as above; format: cell-based; conditions: Klebsiella pneumoniae, ATCCBAA2470; K. pneumoniae ATCC BAA-2470 Class B (NDM-1)
Description: as §1

[7] = system: Klebsiella pneumonia ATCC BAA-1705 (KPC-2); assay: as above; format: cell-based; conditions: Klebsiella pneumoniae, ATCCBAA1705; K. pneumoniae ATCC BAA-1705 Class A (KPC-2)
Description: as §1

[8] = system: Escherichia coli ATCC 25922; assay: as above; format: cell-based; conditions: ATCC25922, E. coli ATCC 25922
Description: as §1

NC[C@@H]1CN(C[C@@H]2[C@H](NC(=O)/C(=N\OC3(C(=O)O)CC3)c3csc(N)n3)C(=O)N2S(=O)O)S(=O)(=O)N1 (stereo in doubt)
Drug resistance rate (conclusion) ([1]; 2-fold of MIC, E. coli ATCC 25922): lower drug resistance rate | Drug resistance frequency (24 h) ([1]; 2 × MIC): <3.85E−09 | Drug resistance frequency (48 h) ([1]; 2 × MIC): <3.85E−09 | Drug resistance frequency (72 h) ([1]; 2 × MIC): =3.85E−09 | Drug resistance frequency (24 h) ([1]; 4 × MIC): <3.85E−09 | Drug resistance frequency (48 h) ([1]; 4 × MIC): <3.85E−09 | Drug resistance frequency (72 h) ([1]; 4 × MIC): <3.85E−09 | Drug resistance frequency (24 h) ([1]; 8 × MIC): <3.85E−09 | Drug resistance frequency (48 h) ([1]; 8 × MIC): <3.85E−09 | Drug resistance frequency (72 h) ([1]; 8 × MIC): <3.85E−09 | Drug resistance frequency (24 h) ([1]; 16 × MIC): <3.85E−09 | Drug resistance frequency (48 h) ([1]; 16 × MIC): <3.85E−09 | Drug resistance frequency (72 h) ([1]; 16 × MIC): <3.85E−09 | Drug resistance frequency (24 h) ([1]; 32 × MIC): <3.85E−09 | Drug resistance frequency (48 h) ([1]; 32 × MIC): <3.85E−09 | Drug resistance frequency (72 h) ([1]; 32 × MIC): <3.85E−09 | Result of crystallization (exploration of other crystal forms) ([2]; EtOH:H2O = 10:1, first dissolved and then cooled down): No crystal was obtained | Result of crystallization (exploration of other crystal forms) ([2]; EtOH:H2O = 20:1, first dissolved and then cooled down): No crystal was obtained | Result of crystallization (exploration of other crystal forms) ([2]; IPA:H2O = 10:1, first dissolved and then cooled down): No crystal was obtained | Result of crystallization (exploration of other crystal forms) ([2]; IPA:H2O = 20:1, first dissolved and then cooled down): No crystal was obtained | Result of crystallization (exploration of other crystal forms) ([2]; THF:H2O = 10:1, first dissolved at 40° C., cooled to 0~5° C.): No crystal was obtained | Result of crystallization (exploration of other crystal forms) ([2]; acetone:H2O = 20:1, first dissolved and then cooled down): No crystal was obtained | Other crystal forms obtained (conclusion) ([2]; dissolved in different aqueous systems and then crystallized): no other crystal forms were obtained | MIC [3]: 0.125 µg/mL (≈ 0.221 µM) | MIC [4]: 0.5 µg/mL (≈ 0.882 µM) | MIC [5]: 0.5 µg/mL (≈ 0.882 µM) | MIC [6]: 0.25 µg/mL (≈ 0.441 µM) | MIC [7]: 1 µg/mL (≈ 1.76 µM) | MIC [8]: 0.25 µg/mL (≈ 0.441 µM)
